Experimental data published in paper PMC4279406, “Simultaneous targeting of PI3Kδ and a PI3Kδ-dependent MEK1/2-Erk1/2 pathway for therapy in pediatric B-cell acute lymphoblastic leukemia” (Oncotarget, 2014).

Tests used:
Assay in all cases: KinaseProfiler protein kinase activity
Format in all cases: biochemical
Settings in all cases: 10 μM X-370
Abl = target: T1, Abl (Homo sapiens, UniProt P00519)
T1 construct: purchased Millipore KinaseProfiler
Experimental: (§1) In vitro kinase profile assays were analyzed by the Kinase Profiler Service (Millipore, United Kingdom) following its guidelines. A GST-tagged human p110δ and regulatory full-length p85 were co-expressed in insect cell Sf9. Recombinant protein was extracted by affinity purification. The PI3K kinase activity was determined in the increasing concentration of ATP and X-370 with PI3-Kinase HTRF™ Assay kit (Millipore) as described previously. […]
(§2) Table S1: Inhibitory activity of X-370 against protein kinases
(§3) kinome at 10 μM. The relative kianse activity left in the presence of 10 μM were shown (Mi llipore
(§4) Kinase activity (% of control) Kinase activity (% of control) Kinase activity (% of control)
(§5) CDK1/cyclinB 97 Lck activated 89 Ret 125

Aurora-A = target: T2, Aurora-A (Homo sapiens, UniProt O14965)
T2 construct: purchased Millipore KinaseProfiler
T2 sequence (O14965 whole entry): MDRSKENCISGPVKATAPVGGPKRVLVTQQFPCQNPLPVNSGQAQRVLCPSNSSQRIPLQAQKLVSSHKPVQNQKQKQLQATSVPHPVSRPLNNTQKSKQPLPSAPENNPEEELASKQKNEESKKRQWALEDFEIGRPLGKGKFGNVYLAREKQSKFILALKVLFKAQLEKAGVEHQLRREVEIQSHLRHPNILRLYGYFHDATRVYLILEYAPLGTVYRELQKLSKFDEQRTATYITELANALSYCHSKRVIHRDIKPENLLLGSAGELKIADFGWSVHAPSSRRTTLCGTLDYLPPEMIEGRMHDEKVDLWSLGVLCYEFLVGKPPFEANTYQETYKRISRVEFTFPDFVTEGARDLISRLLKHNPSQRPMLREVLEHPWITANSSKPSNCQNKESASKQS
Experimental: as §1, §2, §3, §4, §5

Axl = target: T3, Axl (Homo sapiens, UniProt P30530)
T3 construct: purchased Millipore KinaseProfiler
Experimental: as §1, §2, §3, §4, §5

BTK = target: T4, BTK (Homo sapiens, UniProt Q06187)
T4 construct: purchased Millipore KinaseProfiler
T4 sequence (Q06187 whole entry): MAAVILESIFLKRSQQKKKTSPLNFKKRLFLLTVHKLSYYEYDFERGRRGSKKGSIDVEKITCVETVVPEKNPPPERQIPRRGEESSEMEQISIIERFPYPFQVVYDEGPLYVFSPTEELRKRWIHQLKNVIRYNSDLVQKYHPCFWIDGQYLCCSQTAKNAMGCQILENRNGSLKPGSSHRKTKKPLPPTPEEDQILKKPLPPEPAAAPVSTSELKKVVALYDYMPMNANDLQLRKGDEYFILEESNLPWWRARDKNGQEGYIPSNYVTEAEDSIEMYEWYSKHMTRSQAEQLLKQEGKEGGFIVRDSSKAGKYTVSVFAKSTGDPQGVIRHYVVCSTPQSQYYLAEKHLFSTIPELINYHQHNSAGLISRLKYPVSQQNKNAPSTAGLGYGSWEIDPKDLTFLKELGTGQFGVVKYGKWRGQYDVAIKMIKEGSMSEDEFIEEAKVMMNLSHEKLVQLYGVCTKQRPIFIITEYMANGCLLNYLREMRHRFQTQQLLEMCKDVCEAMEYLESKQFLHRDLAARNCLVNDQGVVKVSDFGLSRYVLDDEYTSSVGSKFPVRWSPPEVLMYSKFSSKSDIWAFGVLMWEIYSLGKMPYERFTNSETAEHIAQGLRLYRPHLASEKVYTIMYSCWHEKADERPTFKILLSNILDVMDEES
Experimental: as §1, §2, §3, §4, §5

CDK1/cyclinB = target: T5, CDK1/cyclinB (Homo sapiens, UniProt P06493)
T5 construct: purchased Millipore KinaseProfiler
Experimental: as §1, §2, §3, §4, §5

CK1(y) = system: CK1(y)
Experimental: as §1, §2, §3, §4, §5

EGFR = target: T6, EGFR (Homo sapiens, UniProt P00533)
T6 construct: purchased Millipore KinaseProfiler
Experimental: as §1, §2, §3, §4, §5

FGFR1 = target: T7, FGFR1 (Homo sapiens, UniProt P11362)
T7 construct: purchased Millipore KinaseProfiler
Experimental: as §1, §2, §3, §4, §5

Flt1 = target: T8, Flt1 (Homo sapiens, UniProt P17948)
T8 construct: purchased Millipore KinaseProfiler
Experimental: as §1, §2, §3, §4, §5

Fyn = target: T9, Fyn (Homo sapiens, UniProt P06241)
T9 construct: purchased Millipore KinaseProfiler
Experimental: as §1, §2, §3, §4, §5

GSK3 α = target: T10, GSK3 α (Homo sapiens, UniProt P49840)
T10 construct: purchased Millipore KinaseProfiler
Experimental: as §1, §2, §3, §4, §5

IR, activated = target: T11, IR, activated (Homo sapiens, UniProt P06213)
T11 construct: purchased Millipore KinaseProfiler
Experimental: as §1, §2, §3, §4, §5

IRAK1 = target: T12, IRAK1 (Homo sapiens, UniProt P51617)
T12 construct: purchased Millipore KinaseProfiler
Experimental: as §1, §2, §3, §4, §5

JAK2 = target: T13, JAK2 (Homo sapiens, UniProt O60674)
T13 construct: purchased Millipore KinaseProfiler
Experimental: as §1, §2, §3, §4, §5

JNK1 α1 = target: T14, JNK1 α1 (Homo sapiens, UniProt P45983)
T14 construct: purchased Millipore KinaseProfiler
Experimental: as §1, §2, §3, §4, §5

LKB1 = target: T15, LKB1 (Homo sapiens, UniProt Q15831)
T15 construct: purchased Millipore KinaseProfiler
Experimental: as §1, §2, §3, §4, §5

MAPK1 = target: T16, MAPK1 (Homo sapiens, UniProt P27361)
T16 construct: purchased Millipore KinaseProfiler
Experimental: as §1, §2, §3, §4, §5

MAPKAP-K2 = target: T17, MAPKAP-K2 (Homo sapiens, UniProt P49137)
T17 construct: purchased Millipore KinaseProfiler
T17 sequence (P49137 whole entry): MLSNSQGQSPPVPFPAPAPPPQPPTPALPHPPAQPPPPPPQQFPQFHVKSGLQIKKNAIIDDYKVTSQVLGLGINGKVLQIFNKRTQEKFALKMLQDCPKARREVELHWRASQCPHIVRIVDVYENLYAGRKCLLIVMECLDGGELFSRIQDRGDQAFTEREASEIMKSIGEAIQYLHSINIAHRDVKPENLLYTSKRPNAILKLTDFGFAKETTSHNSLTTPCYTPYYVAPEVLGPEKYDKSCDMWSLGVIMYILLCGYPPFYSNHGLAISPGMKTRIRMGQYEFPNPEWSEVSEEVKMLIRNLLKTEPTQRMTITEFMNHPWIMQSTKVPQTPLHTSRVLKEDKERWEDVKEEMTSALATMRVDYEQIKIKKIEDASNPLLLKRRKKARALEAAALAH
Experimental: as §1, §2, §3, §4, §5

MARK1 = target: T18, MARK1 (Homo sapiens, UniProt Q9P0L2)
T18 construct: purchased Millipore KinaseProfiler
Experimental: as §1, §2, §3, §4, §5

MEK1 = target: T19, MEK1 (Homo sapiens, UniProt Q02750)
T19 construct: purchased Millipore KinaseProfiler
Experimental: as §1, §2, §3, §4, §5

Met = target: T20, Met (Homo sapiens, UniProt P08581)
T20 construct: purchased Millipore KinaseProfiler
T20 sequence (P08581 25-1390): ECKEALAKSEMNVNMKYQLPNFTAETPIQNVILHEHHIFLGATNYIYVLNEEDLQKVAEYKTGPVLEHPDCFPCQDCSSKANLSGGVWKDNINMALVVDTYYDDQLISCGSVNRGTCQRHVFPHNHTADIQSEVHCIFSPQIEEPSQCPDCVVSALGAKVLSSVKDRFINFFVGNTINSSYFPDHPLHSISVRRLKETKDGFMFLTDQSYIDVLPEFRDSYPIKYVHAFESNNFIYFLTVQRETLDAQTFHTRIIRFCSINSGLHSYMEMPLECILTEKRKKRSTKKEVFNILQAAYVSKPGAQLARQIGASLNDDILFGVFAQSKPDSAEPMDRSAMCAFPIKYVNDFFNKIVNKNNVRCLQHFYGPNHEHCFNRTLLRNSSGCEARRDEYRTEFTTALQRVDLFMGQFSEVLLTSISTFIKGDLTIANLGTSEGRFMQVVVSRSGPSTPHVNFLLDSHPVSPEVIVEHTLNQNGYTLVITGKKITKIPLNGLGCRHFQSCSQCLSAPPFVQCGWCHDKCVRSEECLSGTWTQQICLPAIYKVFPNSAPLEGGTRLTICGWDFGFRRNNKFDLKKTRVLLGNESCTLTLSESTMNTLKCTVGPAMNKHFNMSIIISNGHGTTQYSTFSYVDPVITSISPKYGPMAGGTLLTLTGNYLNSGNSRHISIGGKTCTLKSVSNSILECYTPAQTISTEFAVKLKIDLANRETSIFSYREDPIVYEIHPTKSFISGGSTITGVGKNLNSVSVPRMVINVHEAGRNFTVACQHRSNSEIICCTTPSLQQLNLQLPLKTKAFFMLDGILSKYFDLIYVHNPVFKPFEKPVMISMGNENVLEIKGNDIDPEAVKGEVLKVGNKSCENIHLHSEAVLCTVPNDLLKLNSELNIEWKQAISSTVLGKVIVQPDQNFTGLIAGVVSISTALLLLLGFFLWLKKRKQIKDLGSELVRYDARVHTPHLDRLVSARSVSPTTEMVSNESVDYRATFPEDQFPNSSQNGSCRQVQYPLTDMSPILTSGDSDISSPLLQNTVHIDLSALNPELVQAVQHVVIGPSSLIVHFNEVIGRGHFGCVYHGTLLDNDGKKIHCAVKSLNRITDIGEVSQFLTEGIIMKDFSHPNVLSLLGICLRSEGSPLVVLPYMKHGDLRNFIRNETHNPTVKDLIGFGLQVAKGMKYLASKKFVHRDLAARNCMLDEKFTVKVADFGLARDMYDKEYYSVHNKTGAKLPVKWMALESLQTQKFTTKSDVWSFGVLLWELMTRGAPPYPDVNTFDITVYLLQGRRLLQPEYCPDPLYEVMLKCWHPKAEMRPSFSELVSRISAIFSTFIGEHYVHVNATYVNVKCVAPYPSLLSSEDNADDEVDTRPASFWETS
Experimental: as §1, §2, §3, §4, §5

NEK11 = target: T21, NEK11 (Homo sapiens, UniProt Q8NG66)
T21 construct: purchased Millipore KinaseProfiler
Experimental: as §1, §2, §3, §4, §5

PAK2 = target: T22, PAK2 (Homo sapiens, UniProt Q13177)
T22 construct: purchased Millipore KinaseProfiler
Experimental: as §1, §2, §3, §4, §5

PDGFR α = target: T23, PDGFR α (Homo sapiens, UniProt P16234)
T23 construct: purchased Millipore KinaseProfiler
T23 sequence (P16234 24-1089): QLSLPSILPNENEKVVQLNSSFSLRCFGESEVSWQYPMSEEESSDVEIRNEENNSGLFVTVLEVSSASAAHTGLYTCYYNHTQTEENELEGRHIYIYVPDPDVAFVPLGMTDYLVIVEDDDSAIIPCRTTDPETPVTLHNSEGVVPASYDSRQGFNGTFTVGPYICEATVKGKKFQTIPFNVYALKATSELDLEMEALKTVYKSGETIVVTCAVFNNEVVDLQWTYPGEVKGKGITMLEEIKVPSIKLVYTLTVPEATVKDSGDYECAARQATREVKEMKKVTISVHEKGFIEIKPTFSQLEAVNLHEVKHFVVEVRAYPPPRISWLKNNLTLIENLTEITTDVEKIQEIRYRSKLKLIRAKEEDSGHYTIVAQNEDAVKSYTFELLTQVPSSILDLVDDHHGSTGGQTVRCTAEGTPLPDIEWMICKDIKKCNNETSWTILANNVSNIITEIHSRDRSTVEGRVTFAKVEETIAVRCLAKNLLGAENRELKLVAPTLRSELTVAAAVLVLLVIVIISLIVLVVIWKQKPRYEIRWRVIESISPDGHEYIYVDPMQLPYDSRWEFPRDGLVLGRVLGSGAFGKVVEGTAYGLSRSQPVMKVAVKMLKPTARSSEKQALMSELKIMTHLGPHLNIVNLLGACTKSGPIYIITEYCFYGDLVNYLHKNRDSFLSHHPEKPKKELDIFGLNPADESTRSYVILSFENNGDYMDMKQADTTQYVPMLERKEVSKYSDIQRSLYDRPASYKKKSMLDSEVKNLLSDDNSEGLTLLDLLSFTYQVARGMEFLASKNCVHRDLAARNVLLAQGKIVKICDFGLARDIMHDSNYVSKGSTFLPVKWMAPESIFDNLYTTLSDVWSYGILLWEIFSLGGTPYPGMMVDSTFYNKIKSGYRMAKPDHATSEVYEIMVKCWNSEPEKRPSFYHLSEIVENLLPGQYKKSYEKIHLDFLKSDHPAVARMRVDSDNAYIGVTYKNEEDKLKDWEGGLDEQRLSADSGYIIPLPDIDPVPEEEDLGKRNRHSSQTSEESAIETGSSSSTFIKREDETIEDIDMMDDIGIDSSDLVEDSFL
Experimental: as §1, §2, §3, §4, §5

PDK1 = target: T24, PDK1 (Homo sapiens, UniProt O15530)
T24 construct: purchased Millipore KinaseProfiler
Experimental: as §1, §2, §3, §4, §5

PEK = target: T25, PEK (Homo sapiens, UniProt Q9NZJ5)
T25 construct: purchased Millipore KinaseProfiler
Experimental: as §1, §2, §3, §4, §5

PKA = target: T26, PKA (Homo sapiens, UniProt P17612)
T26 construct: purchased Millipore KinaseProfiler
Experimental: as §1, §2, §3, §4, §5

PKB α = target: T27, PKB α (Homo sapiens, UniProt P31749)
T27 construct: purchased Millipore KinaseProfiler
Experimental: as §1, §2, §3, §4, §5

PKC α = target: T28, PKC α (Homo sapiens, UniProt P17252)
T28 construct: purchased Millipore KinaseProfiler
Experimental: as §1, §2, §3, §4, §5

Pim-1 = target: T29, Pim-1 (Homo sapiens, UniProt P11309)
T29 construct: purchased Millipore KinaseProfiler
Experimental: as §1, §2, §3, §4, §5

Plk1 = target: T30, Plk1 (Homo sapiens, UniProt P53350)
T30 construct: purchased Millipore KinaseProfiler
Experimental: as §1, §2, §3, §4, §5

ROCK-I = target: T31, ROCK-I (Homo sapiens, UniProt Q13464)
T31 construct: purchased Millipore KinaseProfiler
Experimental: as §1, §2, §3, §4, §5

Ret = target: T32, Ret (Homo sapiens, UniProt P07949)
T32 construct: purchased Millipore KinaseProfiler
T32 sequence (P07949 29-1114): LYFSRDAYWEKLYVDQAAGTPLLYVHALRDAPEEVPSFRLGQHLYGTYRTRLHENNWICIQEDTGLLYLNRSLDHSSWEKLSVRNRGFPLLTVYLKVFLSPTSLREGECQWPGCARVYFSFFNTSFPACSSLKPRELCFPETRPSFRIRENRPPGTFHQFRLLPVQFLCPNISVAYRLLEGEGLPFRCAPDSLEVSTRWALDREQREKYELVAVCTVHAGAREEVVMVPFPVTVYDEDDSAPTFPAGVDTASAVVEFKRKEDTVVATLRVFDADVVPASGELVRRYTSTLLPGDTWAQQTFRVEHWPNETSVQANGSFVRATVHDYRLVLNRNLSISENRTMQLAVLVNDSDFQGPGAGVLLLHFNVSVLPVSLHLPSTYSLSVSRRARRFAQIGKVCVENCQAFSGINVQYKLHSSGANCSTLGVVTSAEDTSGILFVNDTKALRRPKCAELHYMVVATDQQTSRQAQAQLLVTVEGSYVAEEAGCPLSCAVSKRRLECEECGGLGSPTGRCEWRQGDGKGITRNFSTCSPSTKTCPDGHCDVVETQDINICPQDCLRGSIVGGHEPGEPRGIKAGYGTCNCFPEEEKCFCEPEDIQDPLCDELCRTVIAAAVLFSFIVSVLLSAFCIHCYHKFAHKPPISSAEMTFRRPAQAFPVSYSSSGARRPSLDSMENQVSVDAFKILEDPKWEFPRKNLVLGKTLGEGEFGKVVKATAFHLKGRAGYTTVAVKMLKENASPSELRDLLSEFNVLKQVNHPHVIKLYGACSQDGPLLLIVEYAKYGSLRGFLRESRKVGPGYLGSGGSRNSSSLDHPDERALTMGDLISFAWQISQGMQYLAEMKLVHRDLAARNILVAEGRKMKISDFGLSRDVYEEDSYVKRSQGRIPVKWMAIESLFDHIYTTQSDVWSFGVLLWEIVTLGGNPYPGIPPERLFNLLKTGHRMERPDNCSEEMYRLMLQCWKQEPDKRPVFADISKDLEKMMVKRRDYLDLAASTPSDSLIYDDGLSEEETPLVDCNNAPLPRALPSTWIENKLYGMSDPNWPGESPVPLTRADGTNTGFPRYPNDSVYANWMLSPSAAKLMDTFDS
Experimental: as §1, §2, §3, §4, §5

Rsk1 = target: T33, Rsk1 (Homo sapiens, UniProt Q15418)
T33 construct: purchased Millipore KinaseProfiler
Experimental: as §1, §2, §3, §4, §5

SAPK2a(T106M) = target: T34, SAPK2a(T106M) (Homo sapiens, UniProt Q16539, T106M)
T34 construct: purchased Millipore KinaseProfiler
Experimental: as §1, §2, §3, §4, §5

Syk = target: T35, Syk (Homo sapiens, UniProt P43405)
T35 construct: purchased Millipore KinaseProfiler
Experimental: as §1, §2, §3, §4, §5

TBK1 = target: T36, TBK1 (Homo sapiens, UniProt Q9UHD2)
T36 construct: purchased Millipore KinaseProfiler
Experimental: as §1, §2, §3, §4, §5

TrkA = target: T37, TrkA (Homo sapiens, UniProt P04629)
T37 construct: purchased Millipore KinaseProfiler
Experimental: as §1, §2, §3, §4, §5

c-RAF = target: T38, c-RAF (Homo sapiens, UniProt P04049)
T38 construct: purchased Millipore KinaseProfiler
Experimental: as §1, §2, §3, §4, §5

cKit = target: T39, cKit (Homo sapiens, UniProt P10721)
T39 construct: purchased Millipore KinaseProfiler
Experimental: as §1, §2, §3, §4, §5

p70S6K = target: T40, p70S6K (Homo sapiens, UniProt P23443)
T40 construct: purchased Millipore KinaseProfiler
Experimental: as §1, §2, §3, §4, §5

O=C(N1CCCC1)N1CCC(n2cnc3c(-n4c(C(F)F)nc5ccccc54)nc(N4CCOCC4)nc32)CC1 [X-370]
Kinase activity (% of control) (Abl): 130 % of control
Kinase activity (% of control) (Aurora-A): 73 % of control
Kinase activity (% of control) (Axl): 106 % of control
Kinase activity (% of control) (BTK): 121 % of control
Kinase activity (% of control) (CDK1/cyclinB): 97 % of control
Kinase activity (% of control) (CK1(y)): 64 % of control
Kinase activity (% of control) (EGFR): 90 % of control
Kinase activity (% of control) (FGFR1): 108 % of control
Kinase activity (% of control) (Flt1): 99 % of control
Kinase activity (% of control) (Fyn): 97 % of control
Kinase activity (% of control) (GSK3 α): 94 % of control
Kinase activity (% of control) (IR, activated): 111 % of control
Kinase activity (% of control) (IRAK1): 106 % of control
Kinase activity (% of control) (JAK2): 109 % of control
Kinase activity (% of control) (JNK1 α1): 90 % of control
Kinase activity (% of control) (LKB1): 66 % of control
Kinase activity (% of control) (MAPK1): 81 % of control
Kinase activity (% of control) (MAPKAP-K2): 95 % of control
Kinase activity (% of control) (MARK1): 89 % of control
Kinase activity (% of control) (MEK1): 109 % of control
Kinase activity (% of control) (Met): 113 % of control
Kinase activity (% of control) (NEK11): 95 % of control
Kinase activity (% of control) (PAK2): 100 % of control
Kinase activity (% of control) (PDGFR α): 121 % of control
Kinase activity (% of control) (PDK1): 94 % of control
Kinase activity (% of control) (PEK): 105 % of control
Kinase activity (% of control) (PKA): 106 % of control
Kinase activity (% of control) (PKB α): 87 % of control
Kinase activity (% of control) (PKC α): 96 % of control
Kinase activity (% of control) (Pim-1): 88 % of control
Kinase activity (% of control) (Plk1): 100 % of control
Kinase activity (% of control) (ROCK-I): 93 % of control
Kinase activity (% of control) (Ret): 125 % of control
Kinase activity (% of control) (Rsk1): 88 % of control
Kinase activity (% of control) (SAPK2a(T106M)): 102 % of control
Kinase activity (% of control) (Syk): 85 % of control
Kinase activity (% of control) (TBK1): 93 % of control
Kinase activity (% of control) (TrkA): 101 % of control
Kinase activity (% of control) (c-RAF): 50 % of control
Kinase activity (% of control) (cKit): 104 % of control
Kinase activity (% of control) (p70S6K): 88 % of control
